Source: ChEMBL document CHEMBL1201862, “PubChem BioAssay data set” (2004)
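Step 1: Grow cells in 96-well plates. Step 2: Expose to compound for 48 hours at 5 concentrations. Step 3: Interpolate endpoints linearly; if unreached, use highest concentration. At the GI50, growth is halved.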 Calls of active or inactive are those of the source. Cut-off read from the data, not from the text of the source: active = GI50 up to about 1.1 µM and inactive = higher. Peptide text beside a SMILES is read from it. * marks the point of attachment. OSu = O=C1CCC(=O)N1O*

What was measured:
Test in all cases: inhibition of tumour cell growth, NCI panel, 48 h
[1] = test system: 786-0
[2] = test system: A549
[3] = test system: HCT-15
[4] = test system: IGROV-1
[5] = test system: LOX IMVI
[6] = test system: NCI-H23
[7] = test system: NCI-H522
[8] = test system: OVCAR-4
[9] = test system: OVCAR-5
[10] = test system: OVCAR-8
[11] = test system: PC-3
[12] = test system: SF-268
[13] = test system: SK-MEL-2
[14] = test system: SK-MEL-5
[15] = test system: SNB-19
[16] = test system: TK-10
[17] = test system: UACC-62
[18] = test system: UO-31
[19] = test system: Malme-3M
[20] = test system: NCI-H226

SMILES | GI50 [1] | GI50 [2] | GI50 [3] [µM] | GI50 [4] | GI50 [5] | GI50 [6] | GI50 [7] | GI50 [8] | GI50 [9] | GI50 [10] | GI50 [11] | GI50 [12] | GI50 [13] | GI50 [14] | GI50 [15] | GI50 [16] | GI50 [17] | GI50 [18] | GI50 [19] | GI50 [20]
CCCOC(=O)NC(C)C(=O)NC(CCC(=O)NC(CCCC(N)C(=O)O)C(=O)NC(C)C(=O)O)C(=O)O (configuration not stated) | 30.2 µM (inactive) | 74.6 µM (inactive) | 18.1 | 62.2 µM (inactive) | 16.6 µM (inactive) | > 100 µM (inactive) | 26.8 µM (inactive) | 29.4 µM (inactive) | 41.9 µM (inactive) | 17.9 µM (inactive) | 23.9 µM (inactive) | 16.7 µM (inactive) | 54.2 µM (inactive) | 15.7 µM (inactive) | 27.7 µM (inactive) | 69.8 µM (inactive) | 18.6 µM (inactive) | 41.8 µM (inactive) | – | –
OCC1CCCC1O (configuration not stated) | > 100 µM (inactive) | > 100 µM (inactive) | > 100 | > 100 µM (inactive) | – | > 100 µM (inactive) | > 100 µM (inactive) | > 100 µM (inactive) | > 100 µM (inactive) | > 100 µM (inactive) | > 100 µM (inactive) | > 100 µM (inactive) | > 100 µM (inactive) | > 100 µM (inactive) | > 100 µM (inactive) | > 100 µM (inactive) | > 100 µM (inactive) | > 100 µM (inactive) | > 100 µM (inactive) | > 100 µM (inactive)
COc1ccc(-c2nc3cc(C(F)(F)F)ccc3n2CC2CCCN3CCCCC23)cc1 (configuration not stated) | 19.5 µM (inactive) | – | 15.7 | 13.9 µM (inactive) | 15 µM (inactive) | 15.6 µM (inactive) | 15.6 µM (inactive) | 17.1 µM (inactive) | 27.1 µM (inactive) | 17.1 µM (inactive) | 13.6 µM (inactive) | 15.3 µM (inactive) | 15.5 µM (inactive) | 14.4 µM (inactive) | – | 16.6 µM (inactive) | – | 17.1 µM (inactive) | – | 16.5 µM (inactive)
COC(=O)[C@H]1CO[C@@H](C(C)(C)C)N1C(=O)N1C=CC(=O)C[C@@H]1C | > 100 µM (inactive) | > 100 µM (inactive) | – | > 100 µM (inactive) | > 100 µM (inactive) | > 100 µM (inactive) | > 100 µM (inactive) | – | > 100 µM (inactive) | > 100 µM (inactive) | > 100 µM (inactive) | > 100 µM (inactive) | > 100 µM (inactive) | > 100 µM (inactive) | – | > 100 µM (inactive) | > 100 µM (inactive) | > 100 µM (inactive) | > 100 µM (inactive) | > 100 µM (inactive)
CN(/N=C/C=N/N(C)C1=NCCCN1)C1=NCCCN1 | > 100 µM (inactive) | > 100 µM (inactive) | > 100 | > 100 µM (inactive) | > 100 µM (inactive) | > 100 µM (inactive) | > 100 µM (inactive) | > 100 µM (inactive) | > 100 µM (inactive) | > 100 µM (inactive) | > 100 µM (inactive) | > 100 µM (inactive) | – | > 100 µM (inactive) | > 100 µM (inactive) | > 100 µM (inactive) | > 100 µM (inactive) | > 100 µM (inactive) | > 100 µM (inactive) | > 100 µM (inactive)
O=C1C2C(C(=O)N1c1ccccc1)C1(c3ccccc3)CCC2(C(=O)c2ccccc2)O1 (configuration not stated) | > 10 µM (inactive) | > 10 µM (inactive) | > 10 | > 10 µM (inactive) | > 10 µM (inactive) | > 10 µM (inactive) | > 10 µM (inactive) | > 10 µM (inactive) | > 10 µM (inactive) | > 10 µM (inactive) | > 10 µM (inactive) | > 10 µM (inactive) | > 10 µM (inactive) | > 10 µM (inactive) | > 10 µM (inactive) | > 10 µM (inactive) | > 10 µM (inactive) | > 10 µM (inactive) | > 10 µM (inactive) | –
c1ccc2c(c1)nc1n2CCNC1 | > 100 µM (inactive) | > 100 µM (inactive) | > 100 | > 100 µM (inactive) | > 100 µM (inactive) | > 100 µM (inactive) | – | > 100 µM (inactive) | > 100 µM (inactive) | > 100 µM (inactive) | > 100 µM (inactive) | > 100 µM (inactive) | > 100 µM (inactive) | > 100 µM (inactive) | > 100 µM (inactive) | > 100 µM (inactive) | > 100 µM (inactive) | > 100 µM (inactive) | – | > 100 µM (inactive)
NCCCCC(NC(=O)C(N)Cc1ccc(O)cc1)C(=O)NC(Cc1ccc(O)cc1)C(=O)NC(CCCCN)C(=O)ON1C(=O)CCC1=O (configuration not stated) (H-YKYK-OSu; configuration not given here) | > 100 µM (inactive) | > 100 µM (inactive) | > 100 | > 100 µM (inactive) | – | > 100 µM (inactive) | – | – | > 100 µM (inactive) | > 100 µM (inactive) | > 100 µM (inactive) | – | > 100 µM (inactive) | > 100 µM (inactive) | > 100 µM (inactive) | > 100 µM (inactive) | > 100 µM (inactive) | > 100 µM (inactive) | > 100 µM (inactive) | > 100 µM (inactive)
